Strand notation (5' to 3'): a small letter for the sugar, then the base; units joined by * are phosphorothioate-linked, units joined directly phosphodiester-linked; [ ] holds rarer units or linkages, { } end groups; capitals alone tell only the bases. k = constrained ethyl (cEt); [5mC] = 5-methylcytosine; d = 2'-deoxy (DNA)
Tested on: Yap1 mRNA
Assay: Antisense inhibition of human Yap1 in A-431 cells by cEt gapmers, single dose (Example 4, RTS4814)
Type: cell-based
Method in brief: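 Values are % UTC: Yap1 mRNA by quantitative RT-PCR, normalized to RIBOGREEN total RNA. Cells were exposed ~48 h to 2,000 nM oligonucleotide without transfection. Oligonucleotides were 16-nucleoside gapmers with three cEt nucleosides per wing, ten-deoxy gap, P=S linkages throughout.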

[1] = Table 16, A-431 cells, 5,000 cells per well, free uptake, 2,000 nM, approximately 48 hours, RTS4814, normalized to RIBOGREEN, Yap1 mRNA relative to untreated control cells
[2] = Yap1 mRNA remaining as percent of untreated control, 3-10-3 cEt gapmers, A-431 cells, Table 36
[3] = Table 14, A-431 cells, 5,000 cells per well, free uptake, 2,000 nM, approximately 48 hours, RTS4814, normalized to RIBOGREEN, Yap1 mRNA relative to untreated control, * = targets amplicon region of primer probe set
[4] = Table 15, A-431 cells, 5,000 cells per well, free uptake, 2,000 nM, approximately 48 hours, RTS4814, normalized to RIBOGREEN, Yap1 mRNA relative to untreated control, * = targets amplicon region of primer probe set
[5] = Table 17, A-431 cells, 5,000 cells per well, free uptake, 2,000 nM, approximately 48 hours, RTS4814, normalized to RIBOGREEN, Yap1 mRNA relative to untreated control cells

1074884 (kG*kG*kG*d[5mC]*dT*dA*dA*d[5mC]*dT*d[5mC]*d[5mC]*dT*dG*k[5mC]*k[5mC]*kG; antisense) [compound 1074884]
YAP1 (% UTC) (table after Table 37, headed TABLE 32 (gapmers targeting SEQ ID NO.: 3), A-431 cells, free uptake, 2,000 nM, approximately 48 hours, RTS4814): 110 % UTC

1074242 (antisense kA*kG*kA*dA*dG*dA*dT*dG*dT*d[5mC]*dT*dT*dT*kG*k[5mC]*k[5mC]) [Compound 1074242]
YAP1 (% UTC) [1]: 56 % UTC

1076502 (k[5mC]*kA*kA*dA*dG*dT*dA*dA*dG*dT*dG*dA*dG*k[5mC]*k[5mC]*k[5mC]; antisense) [compound 1076502]
YAP1 (% UTC) [2]: 17 % UTC

1075936 (k[5mC]*kT*kT*dA*dT*dA*dT*dT*d[5mC]*dT*d[5mC]*dT*d[5mC]*k[5mC]*kG*kA; antisense) [Compound 1075936]
YAP1 (% UTC) [3]: 49 % UTC

1074529 (kG*k[5mC]*kA*dG*dA*d[5mC]*dT*dG*d[5mC]*d[5mC]*d[5mC]*d[5mC]*dA*kA*k[5mC]*k[5mC]; antisense) [Compound 1074529]
YAP1 (% UTC) [4]: 50 % UTC

1075874 (k[5mC]*kT*kT*dA*dA*d[5mC]*dA*dA*d[5mC]*d[5mC]*d[5mC]*dT*dA*k[5mC]*kG*kA; antisense) [Compound 1075874]
YAP1 (% UTC) [1]: 113 % UTC

1076321 (k[5mC]*kA*kA*dT*dA*dT*d[5mC]*dA*d[5mC]*dT*dT*dG*dG*kG*k[5mC]*k[5mC]; antisense) [Compound 1076321]
YAP1 (% UTC) [4]: 63 % UTC

1075479 (kG*kA*k[5mC]*dA*dA*dT*dA*dA*dA*dT*d[5mC]*dT*dG*k[5mC]*k[5mC]*kT; antisense) [compound 1075479]
YAP1 (% UTC) (Yap1 mRNA remaining as percent of untreated control, 3-10-3 cEt gapmers, A-431 cells, Table 37): 77 % UTC

1074496 (kA*kA*kT*dA*dA*d[5mC]*d[5mC]*dA*dT*d[5mC]*d[5mC]*d[5mC]*dA*kA*kG*k[5mC]; antisense) [Compound 1074496]
YAP1 (% UTC) [3]: 69 % UTC

1075126 (k[5mC]*kT*kT*dA*dA*dA*dT*d[5mC]*dT*dT*dA*dG*d[5mC]*kA*kA*k[5mC]; antisense) [compound 1075126]
YAP1 (% UTC) [2]: 20 % UTC

1075203 (antisense kT*kA*kA*dT*dT*dA*dT*dA*dT*dA*dA*dG*dG*k[5mC]*kT*kG) [Compound 1075203]
YAP1 (% UTC) [5]: 68 % UTC

1074177 (antisense k[5mC]*k[5mC]*kT*d[5mC]*d[5mC]*d[5mC]*d[5mC]*d[5mC]*dG*dA*d[5mC]*dG*d[5mC]*kG*k[5mC]*kA) [Compound 1074177]
YAP1 (% UTC) [4]: 69 % UTC

1076289 (kA*kA*k[5mC]*dG*dG*dA*d[5mC]*dA*dA*d[5mC]*dT*dT*dA*kA*k[5mC]*kA; antisense) [Compound 1076289]
YAP1 (% UTC) [4]: 21 % UTC

1076515 (antisense k[5mC]*kT*kG*d[5mC]*dA*dA*dG*dA*dA*dT*dA*d[5mC]*dT*kT*kT*kA) [Compound 1076515]
YAP1 (% UTC) [5]: 30 % UTC

1075808 (kG*k[5mC]*kA*dA*dT*dA*dG*dA*dG*dT*dA*dA*d[5mC]*k[5mC]*kA*kG; antisense) [Compound 1075808]
YAP1 (% UTC) [3]: 3 % UTC

1074208 (antisense kG*kT*kG*d[5mC]*dA*d[5mC]*dG*dA*dT*d[5mC]*dT*dG*dA*kT*kG*k[5mC]) [Compound 1074208]
YAP1 (% UTC) [3]: 96 % UTC

1074432 (antisense kG*kT*kT*dA*dA*dA*dA*dT*dG*dA*dT*dT*dG*kG*kT*kG) [Compound 1074432]
YAP1 (% UTC) [3]: 3* % UTC

1076451 (k[5mC]*k[5mC]*kT*dT*dA*dA*dG*dA*dA*d[5mC]*dA*dT*dG*kA*kG*kG; antisense) [Compound 1076451]
YAP1 (% UTC) [5]: 77 % UTC

1076482 (antisense k[5mC]*kT*kT*dT*dA*dG*dA*d[5mC]*dT*dA*dA*dG*dT*kA*kA*kG) [Compound 1076482]
YAP1 (% UTC) [1]: 107 % UTC

1074977 (antisense k[5mC]*kT*kT*dG*dT*dT*d[5mC]*dT*dA*dT*dT*dG*dG*kA*kA*kG) [Compound 1074977]
YAP1 (% UTC) [4]: 94 % UTC

1075363 (kA*k[5mC]*kA*d[5mC]*dA*dA*dT*dA*dT*d[5mC]*dA*dA*dG*kT*k[5mC]*k[5mC]; antisense) [Compound 1075363]
YAP1 (% UTC) [5]: 25 % UTC
